From paper PMC10604610, “An Induced Pluripotent Stem Cell-Derived Human Blood–Brain Barrier (BBB) Model to Test the Crossing by Adeno-Associated Virus (AAV) Vectors and Antisense Oligonucleotides” (Biomedicines, 2023)

Assays:
hCMEC/D3 cells = details: hCMEC/D3 on collagen I-coated Transwell polyester insert 0.4 μm pore, 900,000 cells/cm^2, 48 h; apical to basal; tracer 0.1 mg/mL in Ringer HEPES buffer pH 7.4; 37 °C, 60 min; fluorescence; mean of triplicate filters
iPSC-derived BMECs = details: three iPSC-derived BMEC models (4603, 19-9-7T, AD3-CL1); Transwell polyester insert 0.4 μm pore, 900,000 cells/cm^2, 48 h culture; apical to basal; tracer 0.1 mg/mL in Ringer HEPES buffer pH 7.4; 37 °C, 60 min; fluorescence plate reader; mean of triplicate filters
[1] = test system: undifferentiated iPSCs (4603); details: undifferentiated iPSCs (4603) on collagen IV/fibronectin-coated Transwell insert, 900,000 cells/cm^2, 48 h; apical to basal; tracer 0.1 mg/mL in Ringer HEPES buffer pH 7.4; 37 °C, 60 min; fluorescence; mean of triplicate filters

| Compound | % Permeability (percentage of tracer present in the basal chamber) (hCMEC/D3 cells) | % Permeability (percentage of tracer present in the basal chamber) (iPSC-derived BMECs) | % Permeability (percentage of tracer present in the basal chamber) [1] |
| --- | --- | --- | --- |
| O=C([O-])c1ccccc1-c1c2ccc(=O)cc-2oc2cc([O-])ccc12.[Na+].[Na+] [Na-F, sodium fluorescein] | significantly higher than in iPSC-derived BMECs but significantly lower than that of control iPSCs | about 5% | – |
| lucifer yellow [LY] | around 16% | Less than 2% | around 16% |
